The target of one data set is T1, recombinant PDE4D2 (Homo sapiens, UniProt Q08499).
T1 construct: host or cells: Sf9 insect cells
Kind of data set: PDE4 inhibitory activity screening, PDE4D2 (HTRF, cAMP substrate). The class given is biochemical. The note with it: 40 nM cAMP, 30 minutes, room temperature. On the procedure: (§1) Various concentrations of the test compounds were incubated with recombinant PDE4B1 or PDE4D2 (isolated from Sf9 cells), using 40 nM cAMP as enzyme substrate. Incubation time was set to 30 minutes. The reaction was carried out at room temperature. At the end of the incubation time, residual cAMP concentration was determined, using HTRF as detection method.
(§2) The IC50 values (concentration causing a half-maximal inhibition of control specific activity) and Hill coefficients (nH) were determined by non-linear regression analysis of the inhibition curves generated with mean replicate values using Hill equation curve fitting (Y=D+[(A−D)/(1+(C/C50)nH)], where Y=specific activity, D=minimum specific activity, A=maximum specific activity, C=compound concentration, C50=IC50 and nH=slope factor).
Background: Time-resolved FRET reads energy transfer from a long-lived donor to a nearby acceptor.

Data set [1] in a line: Membrane permeability, Pampa assay. As to conditions: for Papp (Pampa; 10^−6 cm/s): 10 μM in 10 mM PBS pH=7.4, 2% DMSO, 5 hours, room temperature.
Description: (§3) The capacity of compounds of the invention to cross a lipophilic membrane was evaluated in a Pampa assay, using an assay plate containing structured layers of phospholipids supported on a PVDF filter (Benton Dickinson). […] Each compound was tested in triplicate and was prepared as a 10 μM solution in 10 mM PBS pH=7.4 buffer containing 2% DMSO. Compounds were dosed in the donor chamber of the assay plate and incubated for 5 hours, at room temperature. Additionally, an equilibrium solution plate containing 6 μM of test compound was prepared. Test compound concentration in donor and acceptor chamber and in the equilibrium plate was quantified using HPLC-MS/MS. The subsequently calculated permeability coefficients were reported as Papp.
A short description of data set [2]: Stability towards drug metabolizing enzymes in lung S9. The class given is in vitro ADME. The note with it: lung S9 (from smokers); human lung S9, 1 μM compound, cofactors NADPH, UDPGA, PAPS, GSH. On the procedure: A 1 μM solution of the compounds is incubated with a reaction mixture containing lung S9 (from smokers) as well as the cofactors NADPH, UDPGA, PAPS and GSH. Samples are collected at 0, 15, 30 and 60 minutes post incubation. Negative control samples incubated with […] and S9 fraction in the absence of cofactors are run in parallel. By using LC-MS/MS analysis, the percent of compounds remaining at each time point, the metabolic half-life of the compounds (expressed in minutes) and the metabolic half-life of the control compounds are determined.

In the next data set the target is T2, recombinant PDE4B1 (Homo sapiens, UniProt Q07343).
T2 construct: host or cells: Sf9 insect cells
T2 sequence (Q07343 whole entry): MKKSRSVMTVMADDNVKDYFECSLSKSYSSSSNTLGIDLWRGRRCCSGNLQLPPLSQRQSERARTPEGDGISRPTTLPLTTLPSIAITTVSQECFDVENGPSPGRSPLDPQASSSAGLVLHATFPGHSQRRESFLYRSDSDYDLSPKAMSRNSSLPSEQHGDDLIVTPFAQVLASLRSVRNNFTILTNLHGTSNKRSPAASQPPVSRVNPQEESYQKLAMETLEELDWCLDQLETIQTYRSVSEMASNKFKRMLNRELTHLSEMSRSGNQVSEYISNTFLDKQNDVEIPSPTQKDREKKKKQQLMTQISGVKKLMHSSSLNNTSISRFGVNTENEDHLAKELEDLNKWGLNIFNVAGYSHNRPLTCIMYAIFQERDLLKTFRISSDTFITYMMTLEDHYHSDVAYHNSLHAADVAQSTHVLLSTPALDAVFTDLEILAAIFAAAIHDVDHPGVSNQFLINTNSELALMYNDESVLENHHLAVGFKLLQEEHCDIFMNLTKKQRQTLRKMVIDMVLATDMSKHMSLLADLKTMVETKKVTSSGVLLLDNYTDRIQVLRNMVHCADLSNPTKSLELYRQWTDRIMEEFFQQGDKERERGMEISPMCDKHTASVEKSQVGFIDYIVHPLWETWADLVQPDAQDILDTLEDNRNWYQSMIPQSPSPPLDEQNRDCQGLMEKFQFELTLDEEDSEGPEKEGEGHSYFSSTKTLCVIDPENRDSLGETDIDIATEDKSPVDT
Kind of data set: PDE4 inhibitory activity screening, PDE4B1 (HTRF, cAMP substrate). The note with it: 40 nM cAMP, 30 minutes, room temperature. The format is biochemical. On the procedure:
as §1, §2

Data set [3] can be described thus: Stability assay in human plasma. The class given is in vitro ADME. As to conditions: 1 μM compound. On the procedure: Compounds are incubated at a concentration of 1 μM in rat (mice/rabbit/dog/rabbit) or human plasma. Samples are taken at fixed time points and the remnant of compound is determined by LC-MS/MS after protein precipitation. Half life of the compound is expressed in minutes.

Data set [4] in a line: Solubility in aqueous solution (PBS pH 7.4). The class given is physicochemical. As to conditions: phosphate buffer saline (PBS), pH 7.4, aqueous buffer, kinetic from dmso stock; PBS pH7.4, 24 h, room temperature, theoretical concentration 200 μM. On the procedure: Using a 10 mM stock solution of each compound in 100% DMSO, dilutions were prepared to a theoretical concentration of 200 μM in both phosphate buffer saline (PBS), pH7.4 and in 100% DMSO (as reference). Solutions (triplicates) were incubated at room temperature for 24 h on a shaker at 100 rpm. The solutions were then centrifugated at 13000 rpm for 30 min and the supernatant was further diluted to 2 μM in methanol. The supernatant was then analyzed by LC-MSMS. The concentration of compound in PBS supernatant was determined by comparing the MS peak area with that of the reference solution in DMSO.

The nature of a further data set: in vitro. The note with it: PAMPA, pH 7.4. (In PAMPA a lipid-coated filter parts donor from acceptor wells.)

Structures are written as SMILES. In brackets after ≈: the same amount, converted by molar mass.

T1 sequence (Q08499 303-809 limits assumed): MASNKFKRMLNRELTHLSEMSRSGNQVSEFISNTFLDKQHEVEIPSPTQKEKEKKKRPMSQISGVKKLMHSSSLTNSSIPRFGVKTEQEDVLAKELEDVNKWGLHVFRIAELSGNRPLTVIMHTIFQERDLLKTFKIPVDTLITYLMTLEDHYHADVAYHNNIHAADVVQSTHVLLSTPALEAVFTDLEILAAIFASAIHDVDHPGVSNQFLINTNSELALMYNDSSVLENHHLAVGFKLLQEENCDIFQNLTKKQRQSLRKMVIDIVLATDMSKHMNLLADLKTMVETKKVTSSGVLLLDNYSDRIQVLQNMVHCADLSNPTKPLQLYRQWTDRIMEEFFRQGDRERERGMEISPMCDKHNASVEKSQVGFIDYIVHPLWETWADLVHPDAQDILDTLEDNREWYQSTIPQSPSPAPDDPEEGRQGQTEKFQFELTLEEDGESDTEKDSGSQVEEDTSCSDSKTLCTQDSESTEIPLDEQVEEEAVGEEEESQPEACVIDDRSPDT
Description for in vitro: as §3

Regarding `O=C(Nc1c(Cl)cncc1Cl)c1ccc(OC(F)F)c(OCCCCNC2CCOC2=O)c1` (centres unmarked) [Compound 11, N-(3,5-dichloropyridin-4-yl)-4-(difluoromethoxy)-3-{4-[(2-oxotetrahydrofuran-3-yl)amino]butoxy}benzamide], the IC50 at recombinant PDE4D2 and on recombinant PDE4B1 was less than 10 nM throughout. Also, the apparent permeability (Papp) – broadly, a coefficient for how fast a substance crosses the barrier – at 5 h, 10 μM in data set [1] (PAMPA, pH 7.4) is 5 ×10⁻⁶ cm/s. The half-life (as a rule, how long it takes for the measured level to halve) at 1 μM was more than 60 min in data set [2] and less than 15 min in data set [3]. In addition, the solubility – broadly, the concentration that dissolves in the medium under given conditions – at 24 h in data set [4] was in the range of 10 to 100 µM (≈ 5.04 to 50.4 µg/mL).
For `O=C(Nc1c(Cl)cncc1Cl)c1ccc(OC(F)F)c(OCCCCSC2CCOC2=O)c1` (centres unmarked) [Compound 12, N-(3,5-dichloropyridin-4-yl)-4-(difluoromethoxy)-3-{4-[(2-oxotetrahydrofuran-3-yl)thio]butoxy}benzamide], the IC50 at recombinant PDE4D2 and at recombinant PDE4B1 was less than 10 nM in each case. Moreover, in data set [1], the “Papp (Pampa; 10^−6 cm/s)” value is 2.5 10^−6 cm/s. In addition, the figures for the half-life at 1 μM in data set [2] and in data set [3] were more than 60 min and less than 15 min, respectively. The solubility at 24 h in data set [4] fell in the range of 10 to 100 µM (≈ 5.21 to 52.1 µg/mL).
For `O=C(Nc1c(Cl)cncc1Cl)c1ccc(OC(F)F)c(OCCCNC2CCOC2=O)c1` (centres unmarked) [Compound 14], the 50% inhibitory concentration (IC50) – broadly, the concentration that gives 50% inhibition – is 10 to 100 nM at recombinant PDE4D2 and less than 10 nM on recombinant PDE4B1. For the same compound, the “Papp (Pampa; 10^−6 cm/s)” value in data set [1] is on record as 7.3 10^−6 cm/s. Moreover, the figures for the half-life at 1 μM in data set [2] and in data set [3] were more than 60 min and less than 15 min, respectively. The compound also came in with a solubility at 24 h in data set [4] of 10 to 100 µM (≈ 4.9 to 49 µg/mL).
In the case of `CC(C)NCC(O)COc1cccc2ccccc12` (centres unmarked) [Propranolol], the Papp at 5 h, 10 μM in “in vitro” was 9.5 ×10⁻⁶ cm/s.
With `COC(=O)[C@H]1[C@H]2C[C@@H]3c4[nH]c5cc(OC)ccc5c4CCN3C[C@H]2C[C@@H](OC(=O)c2cc(OC)c(OC)c(OC)c2)[C@@H]1OC` [Reserpine], the Papp at 5 h, 10 μM in “in vitro” was 0.008 ×10⁻⁶ cm/s.

The values are drawn from US9126933B2, “Soft PDE4 inhibitors” (Amakem NV, priority 2011, dated 2015).
